In patent US10307426B2, “Therapeutic compounds and compositions, and methods of use thereof” (Genentech, Inc., priority 2018, dated 2019):
Like-named read-outs stand apart in the source and are kept apart here.

Tests used:
[1] = molecular target: isolated recombinant JAK1 kinase domain (Homo sapiens (Human), UniProt P23458); test: JAK1 enzyme assay (Caliper LabChip, peptide phosphorylation, Ki); format: biochemical; conditions: 1.5 nM JAK1, ATP 25 μM, Morrison tight binding model
Method: (§1) The activity of the isolated recombinant JAK1 and JAK2 kinase domain was measured by monitoring phosphorylation of a peptide derived from JAK3 (Val-Ala-Leu-Val-Asp-Gly-Tyr-Phe-Arg-Leu-Thr-Thr, fluorescently labeled on the N-terminus with 5-carboxyfluorescein) using the Caliper LabChip® technology (Caliper Life Sciences, Hopkinton, Mass.). […] Reactions were incubated at 22° C. in 384-well polypropylene microtiter plates for 30 minutes and then stopped by addition of 25 μL of an EDTA containing solution (100 mM HEPES buffer (pH 7.2), 0.015% Brij-35, 150 mM EDTA), resulting in a final EDTA concentration of 50 mM. After termination of the kinase reaction, the proportion of phosphorylated product was determined as a fraction of total peptide substrate using the Caliper LabChip® 3000 according to the manufacturer's specifications. Ki values were then determined using the Morrison tight binding model (Morrison, J. F., Biochim. Biophys. Acta. 185:269-296 (1969); William, J. W. and Morrison, J. F., Meth. Enzymol., 63:437-467 (1979)) modified for ATP-competitive inhibition [Ki=Ki,app/(1+[ATP]/Km,app)].

[2] = molecular target: isolated recombinant JAK2 kinase domain (Homo sapiens (Human), UniProt O60674); test: JAK2 enzyme assay (Caliper LabChip, peptide phosphorylation, Ki); format: biochemical; conditions: 0.2 nM JAK2, ATP 25 μM, Morrison tight binding model
Sequence of isolated recombinant JAK2 kinase domain (O60674 849-1124): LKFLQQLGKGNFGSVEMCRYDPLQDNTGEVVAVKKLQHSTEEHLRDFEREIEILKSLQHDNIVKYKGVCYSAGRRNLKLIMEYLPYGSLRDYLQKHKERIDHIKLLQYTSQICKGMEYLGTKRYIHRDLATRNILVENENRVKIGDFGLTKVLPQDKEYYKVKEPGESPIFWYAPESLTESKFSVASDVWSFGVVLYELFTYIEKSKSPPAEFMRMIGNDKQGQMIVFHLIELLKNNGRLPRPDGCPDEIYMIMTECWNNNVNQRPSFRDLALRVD
Method: as §1

[3] = tested on: JAK1-dependent STAT6 phosphorylation downstream of IL-13 stimulation in BEAS-2B human bronchial epithelial cells; test: JAK1 pathway assay in cell lines: IL-13 stimulated STAT6 phosphorylation in BEAS-2B cells (MSD); format: cell-based; conditions: 1 hr compound incubation, IL-13 stimulation 15 min, read-out: IL-13 p-STAT6 BEAS-2B IC50
Method: Inhibitor potency (EC50) was determined in cell-based assays designed to measure JAK1 dependent STAT phosphorylation. As noted above, inhibition of IL-4, IL-13, and IL-9 signaling by blocking the Jak/Stat signaling pathway can alleviate asthmatic symptoms in pre-clinical lung inflammation models (Mathew et al., 2001, J Exp Med 193(9): 1087-1096; Kudlacz et. al., 2008, Eur J. Pharmacol 582(1-3): 154-161).
In one assay approach, TF-1 human erythroleukemia cells obtained from the American Type Culture Collection (ATCC; Manassas, Va.) were used to measure JAK1-dependent STAT6 phosphorylation downstream of IL-13 stimulation. Prior to use in the assays, TF-1 cells were starved of GM-CSF overnight in OptiMEM medium (Life Technologies, Grand Island, N.Y.) supplemented with 0.5% charcoal/dextran stripped fetal bovine serum (FBS), 0.1 mM non-essential amino acids (NEAA), and 1 mM sodium pyruvate. The assays were run in 384-well plates in serum-free OptiMEM medium using 300,000 cells per well. In a second assay approach, BEAS-2B human bronchial epithelial cells obtained from ATCC were plated at 100,000 cells per well of a 96-well plate one day prior to the experiment. The BEAS-2B assay was run in complete growth medium (bronchial epithelial basal medium plus bulletkit; Lonza; Basel, Switzerland).
Test compounds were serially diluted 1:2 in DMSO and then diluted 1:50 in medium just before use. Diluted compounds were added to the cells, for a final DMSO concentration of 0.2%, and incubated for 30 min (for the TF-1 assay) or 1 hr (for the BEAS-2B assay) at 37° C. Then, cells were stimulated with human recombinant cytokine at their respective EC90 concentrations, as previously determined for each individual lot. Cells were stimulated with IL-13 (R&D Systems, Minneapolis, Minn.) for 15 min at 37° C. The TF-1 cell reactions were stopped by the direct addition of 10× lysis buffer (Cell Signaling Technologies, Danvers, Mass.), whereas the BEAS-2B cell incubations were halted by the removal of medium and addition of 1× lysis buffer. The resultant samples were frozen in the plates at −80° C. Compound mediated inhibition of STAT6 phosphorylation was measured in the cell lysates using MesoScale Discovery (MSD) technology (Gaithersburg, Md.). EC50 values were determined as the concentration of compound required for 50% inhibition of STAT phosphorylation relative to that measured for the DMSO control.

Sequence of isolated recombinant JAK1 kinase domain (P23458 875-1153): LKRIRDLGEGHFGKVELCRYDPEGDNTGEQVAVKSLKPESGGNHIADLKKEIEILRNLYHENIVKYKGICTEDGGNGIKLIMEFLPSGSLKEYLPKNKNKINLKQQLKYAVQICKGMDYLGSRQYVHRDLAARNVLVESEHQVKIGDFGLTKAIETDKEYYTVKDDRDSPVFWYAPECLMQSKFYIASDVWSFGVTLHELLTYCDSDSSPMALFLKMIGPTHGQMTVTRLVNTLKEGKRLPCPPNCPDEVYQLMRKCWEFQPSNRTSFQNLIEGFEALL

Ki [1] [nM] | Ki [2] [nM] | Compound | IC50 ([3]; Homo sapiens, BEAS-2B) [nM] | IC50 [3] [nM]
0.52 | 1.15 | CN(C)C(=O)Cn1cc(NC(=O)c2cnn3cccnc23)c(-c2cc(CC(F)F)ccc2OC(F)F)n1 [Example 7, N-(3-(5-(2,2-difluoroethyl)-2-(difluoromethoxy)phenyl)-1-(2-(dimethylamino)-2-oxoethyl)-1H-pyrazol-4-yl)pyrazolo[1,5-a]pyrimidine-3-carboxamide] | 28.9 | 
0.25 | 0.17 | CN(C)C(=O)Cn1cc(NC(=O)c2cnn3cccnc23)c(-c2cc(I)ccc2OC(F)F)n1 [Example 2, N-[3-[2-(difluoromethoxy)-5-iodophenyl]-1-[(dimethylcarbamoyl)methyl]-1H-pyrazol-4-yl]pyrazolo[1,5-a]pyrimidine-3-carboxamide] | 6 | 
0.17 | 0.38 | CN(C)C(=O)Cn1cc(NC(=O)c2cnn3cccnc23)c(-c2cc(C(F)CF)ccc2OC(F)F)n1 (single isomer, unassigned) [Example 5] |  | 6.7
0.26 | 0.72 | CN(C)C(=O)Cn1cc(NC(=O)c2cnn3cccnc23)c(-c2cc(OC(F)F)ccc2OC(F)F)n1 [Example 17, N-(3-(2,5-bis(difluoromethoxy)phenyl)-1-(2-(dimethylamino)-2-oxoethyl)-1H-pyrazol-4-yl)pyrazolo[1,5-a]pyrimidine-3-carboxamide] | 14.1 | 
0.32 | 0.43 | CN(C)C(=O)Cn1cc(NC(=O)c2cnn3cccnc23)c(-c2cc(Br)ccc2OC(F)F)n1 [Example 15, N-(3-(5-bromo-2-(difluoromethoxy)phenyl)-1-(2-(dimethylamino)-2-oxoethyl)-1H-pyrazol-4-yl)pyrazolo[1,5-a]pyrimidine-3-carboxamide] | 14.3 | 
0.83 | 1.81 | CN(C)C(=O)Cn1cc(NC(=O)c2cnn3cccnc23)c(-c2cc(Oc3ccc(C(=O)N(C)C)cc3)ccc2OC(F)F)n1 [Example 8, N-(3-(2-(difluoromethoxy)-5-(4-(dimethylcarbamoyl)phenoxy)phenyl)-1-(2-(dimethylamino)-2-oxoethyl)-1H-pyrazol-4-yl)pyrazolo[1,5-a]pyrimidine-3-carboxamide] | 43.9 | 
0.51 | 1.17 | C=Cc1ccc(OC(F)F)c(-c2nn(CC(=O)N(C)C)cc2NC(=O)c2cnn3cccnc23)c1 [Example 13, N-(3-(2-(difluoromethoxy)-5-vinylphenyl)-1-(2-(dimethylamino)-2-oxoethyl)-1H-pyrazol-4-yl)pyrazolo[1,5-a]pyrimidine-3-carboxamide] | 24.1 | 
0.58 | 1.26 | CC(C(=O)N(C)C)n1cc(NC(=O)c2cnn3cccnc23)c(-c2cc(Cl)ccc2OC(F)F)n1 (single isomer, unassigned) [Example 11] |  | 41.8
0.15 | 0.25 | CN(C)C(=O)Cn1cc(NC(=O)c2cnn3cccnc23)c(-c2cc(C(F)F)ccc2OC(F)F)n1 [Example 6, N-(3-(2-(difluoromethoxy)-5-(difluoromethyl)phenyl)-1-(2(dimethylamino)-2-oxoethyl)-1H-pyrazol-4-yl)pyrazolo[1,5-a]pyrimidine-3-carboxamide] | 9.9 | 
0.25 | 0.61 | CN(C)C(=O)Cn1cc(NC(=O)c2cnn3cccnc23)c(-c2cc([C@@H]3C[C@H]3C#N)ccc2OC(F)F)n1 [Example 1, N-(3-(5-((1R,2R)-2-cyanocyclopropyl)-2-(difluoromethoxy)phenyl)-1-(2-(dimethylamino)-2-oxoethyl)-1H-pyrazol-4-yl)pyrazolo[1,5-a]pyrimidine-3-carboxamide] | 9.9 | 
0.41 | 0.83 | CC(C(=O)N(C)C)n1cc(NC(=O)c2cnn3cccnc23)c(-c2cc(Cl)ccc2OC(F)F)n1 (single isomer, unassigned) [Example 10] |  | 16.6
0.65 | 1.02 | CN(C)C(=O)Cn1cc(NC(=O)c2cnn3cccnc23)c(-c2cc(Cl)ccc2OC(F)F)n1 [Example 16, N-(3-(5-chloro-2-(difluoromethoxy)phenyl)-1-(2-(dimethylamino)-2-oxoethyl)-1H-pyrazol-4-yl)pyrazolo[1,5-a]pyrimidine-3-carboxamide] | 33.4 | 
0.34 | 0.77 | CN(C)C(=O)Cn1cc(NC(=O)c2c(N)nn3cccnc23)c(-c2cc(Cl)ccc2OC(F)F)n1 [Example 3, 2-amino-N-(3-(5-chloro-2-(difluoromethoxy)phenyl)-1-(2-(dimethylamino)-2-oxoethyl)-1H-pyrazol-4-yl)pyrazolo[1,5-a]pyrimidine-3-carboxamide] | 10.3 | 
3.18 | 1.56 | CN1CC(O)(c2cccc(Oc3ccc(OC(F)F)c(-c4nn(CC(=O)N(C)C)cc4NC(=O)c4cnn5cccnc45)c3)c2)C1 [Example 18, N-(3-(2-(difluoromethoxy)-5-(3-(3-hydroxy-1-methylazetidin-3-yl)phenoxy)phenyl)-1-(2-(dimethylamino)-2-oxoethyl)-1H-pyrazol-4-yl)pyrazolo[1,5-a]pyrimidine-3-carboxamide] | 285 | 
0.27 | 0.75 | CN(C)C(=O)Cn1cc(NC(=O)c2cnn3cccnc23)c(-c2cc(Oc3ccc4c(c3)CNCC4)ccc2OC(F)F)n1 [Example 12, N-(3-(2-(difluoromethoxy)-5-((1,2,3,4-tetrahydroisoquinolin-7-yl)oxy)phenyl)-1-(2-(dimethylamino)-2-oxoethyl)-1H-pyrazol-4-yl)pyrazolo[1,5-a]pyrimidine-3-carboxamide] | 29.8 | 
5.84 | 3.26 | CN(C)C(=O)Cn1cc(NC(=O)c2cnn3cccnc23)c(-c2cc(C(F)CF)ccc2OC(F)F)n1 (single isomer, unassigned) [Example 4] |  | 83.8
0.97 | 1.92 | CN(C)C(=O)Cn1cc(NC(=O)c2cnn3cccnc23)c(-c2cc(CCF)ccc2OC(F)F)n1 [Example 9, N-(3-(2-(difluoromethoxy)-5-(2-fluoroethyl)phenyl)-1-(2-(dimethylamino)-2-oxoethyl)-1H-pyrazol-4-yl)pyrazolo[1,5-a]pyrimidine-3-carboxamide] | 269 | 
0.8 | 1.99 | CN(C)C(=O)Cn1cc(NC(=O)c2cnn3cccnc23)c(-c2cc(C3CC3)ccc2OC(F)F)n1 [Example 14, N-(3-(5-cyclopropyl-2-(difluoromethoxy)phenyl)-1-(2-(dimethylamino)-2-oxoethyl)-1H-pyrazol-4-yl)pyrazolo[1,5-a]pyrimidine-3-carboxamide] | 47.3 | 
